Test results as given in ChEMBL document CHEMBL1201862, “PubChem BioAssay data set” (2004).
The source made the active and inactive calls.

What was measured:
NS3 = NS3 (Hepatitis C virus, UniProt A3EZJ3); assay: HCV NS3 helicase inhibitor potency, dose response, biochemical, fluorescence polarization, ChemBridge library (AID 743264)
[1] = target: Photoreceptor-specific nuclear receptor (Homo sapiens, UniProt Q9Y5X4); assay type: functional, cell-based;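 further: CHO-S cells with Gal4-NCOR and VP16-NR2E3 two-hybrid luciferase reporter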
Vero = Vero cell cytotoxicity, cytotoxicity control for flavivirus capping enzyme inhibitors (AID 588742); assay type: functional; details: Chlorocebus sabaeus
Genome polyprotein = Genome polyprotein (dengue virus type 2, UniProt P29990); assay: Dengue-2 NS5 methyltransferase inhibitors, primary screen, biochemical, confirmation dose response (AID 588689); assay type: functional
[2] = target: T1, Carboxy-terminal domain RNA polymerase II polypeptide A small phosphatase 1 (Homo sapiens, UniProt Q9GZU7); assay: inhibitors of CTDSP1, concentration-response testing, biochemical assay, absorbance-based, actives from ultra-high-throughput screening (AID 540297); assay type: functional
T1 sequence (Q9GZU7 whole entry): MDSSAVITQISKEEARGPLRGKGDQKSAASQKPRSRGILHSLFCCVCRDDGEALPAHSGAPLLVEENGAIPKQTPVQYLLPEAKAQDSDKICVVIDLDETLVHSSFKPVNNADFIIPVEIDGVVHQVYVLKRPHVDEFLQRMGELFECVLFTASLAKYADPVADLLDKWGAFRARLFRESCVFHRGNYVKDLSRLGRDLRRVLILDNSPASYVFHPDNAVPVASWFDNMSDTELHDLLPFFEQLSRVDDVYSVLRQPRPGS

[3] = target: T2, Polyadenylate-binding protein 1 (Homo sapiens, UniProt P11940); assay: PABP1 MLLE–PAM2 interaction inhibitors, dose response, miRNA deadenylation inhibitor project, biochemical, fluorescence polarization, Cy5-PAM2 peptide, secondary (AID 602260); assay type: functional; details: read-out: IC50_Mean
[4] = target: T2, Polyadenylate-binding protein 1; assay: PABP1 MLLE–PAM2 binding inhibitor potency, dose response, biochemical, fluorescence polarization, FITC-PAM2 peptide (AID 602259); assay type: functional; details: read-out: IC50_Mean
[5] = target: Long-chain-fatty-acid--AMP ligase FadD28 (Mycobacterium tuberculosis, UniProt P9WQ59); assay: Fluorescence polarization aasay to screen for inhibitors that compete for the binding of FadD28 to a bisubstrate Measured in Biochemical System Using Plate Reader - 2147-01_Inhibitor_Dose_CherryPick_Activity.; assay type: functional, Mycobacterium tuberculosis H37Rv
[6] = target: T3, Corticotropin-releasing factor receptor 2/Corticotropin-releasing factor-binding protein (Homo sapiens, UniProt P24387+Q13324); assay: activators of CRF receptor 2 with binding protein – uHTS hits, confirmation (AID 602473); assay type: functional; details: read-out: EC50_Mean
T3 sequence (Q13324 whole entry): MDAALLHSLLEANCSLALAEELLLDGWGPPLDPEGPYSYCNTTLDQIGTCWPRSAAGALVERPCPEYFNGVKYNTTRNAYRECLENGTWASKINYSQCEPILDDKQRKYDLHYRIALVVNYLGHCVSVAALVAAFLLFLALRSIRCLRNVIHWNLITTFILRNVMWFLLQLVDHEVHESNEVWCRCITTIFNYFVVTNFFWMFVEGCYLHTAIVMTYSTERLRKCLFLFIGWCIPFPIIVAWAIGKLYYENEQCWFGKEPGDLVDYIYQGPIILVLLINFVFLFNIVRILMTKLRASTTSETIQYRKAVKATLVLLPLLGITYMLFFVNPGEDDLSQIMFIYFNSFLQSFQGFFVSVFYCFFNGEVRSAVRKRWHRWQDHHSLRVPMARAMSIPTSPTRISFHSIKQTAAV
T3 sequence (P24387 whole entry): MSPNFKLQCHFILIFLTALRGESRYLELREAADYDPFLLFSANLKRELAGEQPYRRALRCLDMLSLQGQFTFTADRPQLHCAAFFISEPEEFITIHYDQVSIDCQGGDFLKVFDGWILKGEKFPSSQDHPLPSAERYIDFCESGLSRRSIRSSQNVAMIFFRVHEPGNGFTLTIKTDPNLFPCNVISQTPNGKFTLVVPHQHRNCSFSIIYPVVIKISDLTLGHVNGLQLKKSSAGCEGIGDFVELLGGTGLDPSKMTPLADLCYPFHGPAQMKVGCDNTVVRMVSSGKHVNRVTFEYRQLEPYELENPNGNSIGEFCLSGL

[7] = A549 cell cytotoxicity, dose response, cytotoxicity control, plate reader, cherry-pick, antagonist series (AID 743412); assay type: functional, cell-based
[8] = HepG2 cell cytotoxicity, dose response, cytotoxicity control, plate reader, cherry-pick, antagonist series (AID 743416); assay type: functional, cell-based
[9] = LGR2 antagonists, dose response, cell-based, HEK293, CRE-luciferase reporter, cherry pick, set 2 (AID 743343); assay type: functional;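 further: transfected cells were stimulated with diluted bursicon conditioned medium after compound addition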
[10] = HEK293 cell cytotoxicity, dose response, cytotoxicity control, plate reader, cherry-picked samples (AID 743446); assay type: functional, cell-based
[11] = YAP1 pathway inhibition via CTGF transcript levels, dose response, cell-based, DLD1 colon cancer, RT-qPCR, cherry-pick (AID 1053122); assay type: functional; details: Cancer cell lines
[12] = P. falciparum Dd2 growth inhibitors, dose response, SYBR Green, dry powder samples, set 9 (AID 1159568); assay type: functional, cell-based
[13] = target: T3, Corticotropin-releasing factor receptor 2/Corticotropin-releasing factor-binding protein; assay: Dose Response confirmation of uHTS hits for small molecule antagonists of the CRF-binding protein and CRF-R2 receptor complex.; assay type: functional; details: read-out: IC50_Mean
[14] = CRF-BP/CRF-R2 complex antagonists, dose response, cell-based, uHTS hits, 384-well (AID 651639); assay type: functional, Homo sapiens; details: read-out: IC50_Mean
[15] = target: Induced myeloid leukemia cell differentiation protein Mcl-1 (Homo sapiens, UniProt Q07820); assay type: functional
[16] = target: T4, Low molecular weight phosphotyrosine protein phosphatase (Homo sapiens, UniProt P24666); assay type: functional; details: read-out: IC50_Mean
T4 sequence (P24666 whole entry): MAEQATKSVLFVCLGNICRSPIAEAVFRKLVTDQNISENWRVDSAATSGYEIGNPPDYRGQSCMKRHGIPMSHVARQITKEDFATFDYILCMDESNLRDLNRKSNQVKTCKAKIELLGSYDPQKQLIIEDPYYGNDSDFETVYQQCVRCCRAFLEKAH

[17] = target: T4, Low molecular weight phosphotyrosine protein phosphatase; assay type: functional; details: read-out: IC50_Mean; remark: listed apart in the source
Paired box protein Pax-8 = Paired box protein Pax-8 (Homo sapiens, UniProt Q06710); assay: inhibitors of PAX8-driven TPO luciferase reporter, dose response, RMG-I cells, cherry-pick (AID 687027); assay type: functional, cell-based;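 further: luciferase reporter driven by Pax8 target thyroperoxidase promoter measured by SteadyGlo luminescence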
[18] = IGROV1 ovarian cancer cell cytotoxicity, dose response, PAX8 inhibitor project, plate reader, dry powder samples (AID 743043); assay type: functional, cell-based; details: IGROV-1

Sequence of NS3 (A3EZJ3 whole entry, the tested form may be a part): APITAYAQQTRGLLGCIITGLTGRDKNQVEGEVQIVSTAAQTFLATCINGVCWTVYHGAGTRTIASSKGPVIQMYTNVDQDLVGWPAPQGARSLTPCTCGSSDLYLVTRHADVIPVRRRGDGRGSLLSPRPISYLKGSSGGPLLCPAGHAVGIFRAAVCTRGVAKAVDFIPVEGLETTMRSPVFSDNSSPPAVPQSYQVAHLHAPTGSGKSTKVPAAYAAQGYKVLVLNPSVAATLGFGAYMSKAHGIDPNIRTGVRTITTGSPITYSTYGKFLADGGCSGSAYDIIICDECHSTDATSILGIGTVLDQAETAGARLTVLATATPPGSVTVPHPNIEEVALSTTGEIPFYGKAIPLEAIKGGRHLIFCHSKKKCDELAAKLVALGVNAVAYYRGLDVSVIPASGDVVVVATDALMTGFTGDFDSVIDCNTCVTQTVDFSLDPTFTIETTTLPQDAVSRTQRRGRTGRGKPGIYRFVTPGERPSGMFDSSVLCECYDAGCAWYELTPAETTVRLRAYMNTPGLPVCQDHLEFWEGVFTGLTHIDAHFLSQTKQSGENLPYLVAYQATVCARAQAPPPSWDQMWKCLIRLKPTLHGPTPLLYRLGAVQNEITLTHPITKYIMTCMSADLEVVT
T2 sequence (P11940 whole entry): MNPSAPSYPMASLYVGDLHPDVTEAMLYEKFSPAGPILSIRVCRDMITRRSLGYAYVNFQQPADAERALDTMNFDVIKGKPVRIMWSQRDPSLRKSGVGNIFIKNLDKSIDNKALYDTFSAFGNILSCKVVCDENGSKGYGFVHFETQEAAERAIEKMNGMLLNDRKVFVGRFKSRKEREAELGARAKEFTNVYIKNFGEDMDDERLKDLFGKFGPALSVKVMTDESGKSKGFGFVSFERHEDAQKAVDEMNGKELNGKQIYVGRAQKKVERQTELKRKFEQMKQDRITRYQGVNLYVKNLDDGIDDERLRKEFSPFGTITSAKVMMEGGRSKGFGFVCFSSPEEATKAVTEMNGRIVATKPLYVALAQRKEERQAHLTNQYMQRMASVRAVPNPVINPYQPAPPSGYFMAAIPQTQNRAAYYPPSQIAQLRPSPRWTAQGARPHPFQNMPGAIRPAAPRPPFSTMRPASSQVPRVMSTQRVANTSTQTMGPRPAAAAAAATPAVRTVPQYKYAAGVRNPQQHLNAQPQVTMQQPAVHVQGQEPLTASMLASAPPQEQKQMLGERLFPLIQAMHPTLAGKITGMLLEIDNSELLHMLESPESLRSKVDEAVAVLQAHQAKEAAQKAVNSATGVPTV
Sequence of Paired box protein Pax-8 (Q06710 whole entry): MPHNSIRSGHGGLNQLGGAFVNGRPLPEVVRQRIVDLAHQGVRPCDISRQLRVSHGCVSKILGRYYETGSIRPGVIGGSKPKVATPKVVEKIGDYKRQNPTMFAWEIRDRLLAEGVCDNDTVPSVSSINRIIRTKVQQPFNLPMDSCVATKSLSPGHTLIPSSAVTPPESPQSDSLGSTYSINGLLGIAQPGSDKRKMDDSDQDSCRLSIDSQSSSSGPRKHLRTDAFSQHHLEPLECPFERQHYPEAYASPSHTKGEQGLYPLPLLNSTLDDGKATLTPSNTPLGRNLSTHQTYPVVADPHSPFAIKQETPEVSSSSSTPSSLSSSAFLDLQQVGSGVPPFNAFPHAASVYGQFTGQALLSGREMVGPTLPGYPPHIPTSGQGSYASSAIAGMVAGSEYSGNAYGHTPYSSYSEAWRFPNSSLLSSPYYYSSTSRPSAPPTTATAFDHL
Sequence of Photoreceptor-specific nuclear receptor (Q9Y5X4 whole entry, the tested form may be a part): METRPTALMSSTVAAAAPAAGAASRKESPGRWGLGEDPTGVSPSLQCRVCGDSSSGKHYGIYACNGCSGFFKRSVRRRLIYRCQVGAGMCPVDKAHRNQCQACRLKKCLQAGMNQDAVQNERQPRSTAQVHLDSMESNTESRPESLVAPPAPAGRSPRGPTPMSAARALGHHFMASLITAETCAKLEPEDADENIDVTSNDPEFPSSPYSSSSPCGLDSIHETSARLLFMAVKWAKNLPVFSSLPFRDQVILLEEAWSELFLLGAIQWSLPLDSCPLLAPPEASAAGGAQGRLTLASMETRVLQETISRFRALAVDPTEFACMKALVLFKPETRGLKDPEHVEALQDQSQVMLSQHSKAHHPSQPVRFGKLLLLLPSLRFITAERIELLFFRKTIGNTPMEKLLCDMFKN
Sequence of Long-chain-fatty-acid--AMP ligase FadD28 (P9WQ59 whole entry): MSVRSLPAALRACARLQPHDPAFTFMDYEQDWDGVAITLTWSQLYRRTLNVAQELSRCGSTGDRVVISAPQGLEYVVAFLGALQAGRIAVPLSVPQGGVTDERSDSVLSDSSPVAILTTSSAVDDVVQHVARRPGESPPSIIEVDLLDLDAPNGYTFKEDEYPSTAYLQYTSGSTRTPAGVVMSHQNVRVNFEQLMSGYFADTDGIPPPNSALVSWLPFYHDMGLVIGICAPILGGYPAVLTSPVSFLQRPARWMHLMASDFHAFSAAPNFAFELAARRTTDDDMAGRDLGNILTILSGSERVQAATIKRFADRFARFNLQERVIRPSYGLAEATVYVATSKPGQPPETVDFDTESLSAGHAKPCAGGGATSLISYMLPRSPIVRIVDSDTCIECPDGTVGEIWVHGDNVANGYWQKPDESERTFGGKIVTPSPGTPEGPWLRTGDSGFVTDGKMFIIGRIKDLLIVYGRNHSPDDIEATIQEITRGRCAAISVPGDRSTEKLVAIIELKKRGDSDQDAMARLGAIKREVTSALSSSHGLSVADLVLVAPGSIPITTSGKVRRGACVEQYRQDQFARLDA
Sequence of Genome polyprotein (P29990 2492-3391 limits assumed): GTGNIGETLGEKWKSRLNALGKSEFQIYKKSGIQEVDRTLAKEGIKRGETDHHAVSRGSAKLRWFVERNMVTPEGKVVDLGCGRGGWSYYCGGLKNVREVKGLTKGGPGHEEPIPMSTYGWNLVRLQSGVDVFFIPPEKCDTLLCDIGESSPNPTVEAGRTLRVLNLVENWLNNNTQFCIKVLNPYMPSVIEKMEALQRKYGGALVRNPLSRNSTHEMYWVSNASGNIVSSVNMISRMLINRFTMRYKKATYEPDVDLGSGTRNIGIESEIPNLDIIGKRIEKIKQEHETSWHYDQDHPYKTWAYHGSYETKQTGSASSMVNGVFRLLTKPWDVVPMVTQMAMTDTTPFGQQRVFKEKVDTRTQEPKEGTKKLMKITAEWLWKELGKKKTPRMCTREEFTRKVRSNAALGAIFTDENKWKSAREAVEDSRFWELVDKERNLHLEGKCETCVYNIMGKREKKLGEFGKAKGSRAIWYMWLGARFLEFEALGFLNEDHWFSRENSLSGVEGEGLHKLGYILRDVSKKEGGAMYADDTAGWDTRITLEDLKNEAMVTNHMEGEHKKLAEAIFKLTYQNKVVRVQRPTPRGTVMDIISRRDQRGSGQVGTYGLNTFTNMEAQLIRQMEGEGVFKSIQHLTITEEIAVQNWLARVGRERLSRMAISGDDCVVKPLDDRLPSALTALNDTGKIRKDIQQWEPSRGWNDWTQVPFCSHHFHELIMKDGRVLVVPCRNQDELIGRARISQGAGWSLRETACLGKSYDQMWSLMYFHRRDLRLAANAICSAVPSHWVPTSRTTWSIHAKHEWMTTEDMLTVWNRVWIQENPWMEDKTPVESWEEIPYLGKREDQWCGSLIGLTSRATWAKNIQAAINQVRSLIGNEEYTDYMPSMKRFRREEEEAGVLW
Sequence of Induced myeloid leukemia cell differentiation protein Mcl-1 (Q07820 whole entry): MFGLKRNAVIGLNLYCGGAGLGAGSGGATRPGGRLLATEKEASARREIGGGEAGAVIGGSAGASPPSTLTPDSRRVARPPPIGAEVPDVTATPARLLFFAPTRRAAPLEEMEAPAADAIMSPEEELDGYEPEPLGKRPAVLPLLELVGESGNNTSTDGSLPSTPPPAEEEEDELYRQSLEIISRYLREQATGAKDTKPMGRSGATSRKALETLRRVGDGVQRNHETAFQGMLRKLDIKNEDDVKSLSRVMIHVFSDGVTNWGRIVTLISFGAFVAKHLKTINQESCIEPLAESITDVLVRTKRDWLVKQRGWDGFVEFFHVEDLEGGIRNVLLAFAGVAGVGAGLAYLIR

With `CC(=O)N(C)C1=C(Cl)C(=O)c2ccccc2C1=O` the IC50 (NS3) was 20.4 µM (inactive).

With `OC[C@@H]1CN(Cc2ccc(-c3ccccc3)cc2)C[C@H](n2cnc3c(Nc4ccccc4)ncnc32)O1` the IC50 [1] was 7.72 µM (active).

In the case of `O=C(O)c1ccc2c(c1)C(=O)/C(=C/c1ccccc1)C2=O`, the CC50 (Vero) is reported as > 40 µM (active), the IC50 (Genome polyprotein) is reported as 12.2 µM (active) and the IC50 [2] is reported as 3.5 µM (active). For the same compound, the IC50 [3] was > 66 µM (inactive), the IC50 [4] was > 66 µM (inactive) and the AC50 [5] was 37.7 µM (active).

For `O=C(Nc1ccc(Cl)cc1)c1ccc2c(c1)OCCO2`, the IC50 (NS3) was 76.9 µM (active).

For `CCOCCCn1c(SCc2nc3ccccc3s2)nc2ccccc2c1=O`, the EC50 [6] was > 53 µM (inactive), the AC50 [7] was 29.8 µM (active) and the AC50 [8] was > 52 µM (inactive). The AC50 [9] was 34.6 µM (active) and the AC50 [10] was 5.44 µM (active).

For `C[C@H]1CN([C@@H](C)CO)C(=O)c2cc(C#Cc3ccccc3)cnc2O[C@H]1CN(C)C(=O)c1ccccc1`, the AC50 [11] was 17.8 µM (active) and the AC50 [12] was 1.99 µM (active).

In the case of `Cc1ccc([C@H]2C(C(=O)O)=CC[C@@H](c3ccc(C)cc3)N2S(=O)(=O)c2ccc(C)cc2)cc1`, the IC50 [13] is reported as 34.5 µM (active), the EC50 [6] is reported as 50.2 µM (active) and the IC50 [14] is reported as > 20 µM (inactive).

In the case of `Cc1ccc(NC2=NC(=O)S/C2=C\c2ccco2)cc1`, the IC50 [15] is reported as 7.28 µM (active), the IC50 [16] is reported as > 80 µM (inactive) and the IC50 [17] is reported as 23.9 µM (inactive).

With `O=C(C[C@@H]1CC[C@@H]2[C@H](COC[C@H](O)CN2Cc2ccc3c(c2)OCO3)O1)Nc1ccc(-c2ccccc2)cc1` the AC50 (Paired box protein Pax-8) was 9.11 µM (active) and the AC50 [18] was 41.8 µM (active).
